Measurements from patent US7193079B1 (Board of Trustees of Michigan State University, priority 2003, dated 2007).

Experiments:
CHK1 = biological target: T1, CHK1 (Homo sapiens, UniProt O14757); settings: natural products, general statement; cited from earlier work
T1 sequence (O14757 1-476): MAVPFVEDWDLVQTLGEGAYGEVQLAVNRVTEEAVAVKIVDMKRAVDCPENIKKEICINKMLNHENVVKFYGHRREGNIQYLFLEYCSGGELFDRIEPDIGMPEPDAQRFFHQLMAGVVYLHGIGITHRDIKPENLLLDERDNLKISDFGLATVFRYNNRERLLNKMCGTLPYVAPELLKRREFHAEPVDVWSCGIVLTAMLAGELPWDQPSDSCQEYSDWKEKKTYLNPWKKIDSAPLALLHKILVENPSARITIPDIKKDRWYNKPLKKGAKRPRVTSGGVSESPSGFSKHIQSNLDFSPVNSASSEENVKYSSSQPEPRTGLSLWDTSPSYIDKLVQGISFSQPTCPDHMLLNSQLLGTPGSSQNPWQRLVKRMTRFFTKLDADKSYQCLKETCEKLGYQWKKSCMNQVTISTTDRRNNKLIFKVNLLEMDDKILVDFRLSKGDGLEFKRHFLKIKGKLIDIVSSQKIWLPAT

CEM leukemia cells = test: Inhibition of cell growth in CEM leukemia cells (trypan blue counting); type: cell-based; settings: 48 hour, means of two experiments, standard deviation in parentheses
Description: Cells were treated at different concentrations ranging from 10 ηM to 5 μM concentrations over a 48 hour time period.
CEM cells (CCRF-CEM; ATCC No. CCL-119, American Type Culture Collection, Manassas, Va.) were grown in RPMI-1640 Media (Gibco-BRL, Rockville, Md.) supplemented with 10% Fetal Bovine Serum, penicillin (614 r1 g/mL), streptomycin (10 μg/mL) and HEPES buffer, pH 7.2 at 37° C., 5% CO2. DMSO was used as the vector for all drugs and added in the control experiments. Cell cultures were then treated with 10 μM, 1 μM, 0.1 μM or 10 ηM of the drug in duplicate and allowed to incubate at 37° C., 5% CO2. Cells were stained with 4% trypan blue solution in PBS, and counted under the microscope (Thomas Scientific, Fisher Scientific) in duplicate. This was repeated for Oh, 2 h, 6 h, 12 h, 24 h, and 48 h. The data points obtained were then plotted and a point-to-point curve was drawn to determine the effect of the drug on the cells.

TNF-α production = test: Inhibition of TNF-α production measured by competitive EIA in LPS stimulated THP-1 cells; type: cell-based, human; settings: for IC50: EIA, 3 hr incubation, means of two experiments, standard deviation in parentheses
Description: (§1) Exposure of human Jurkat leukemia T-cells to phorbol myristate acetate (PMA/PHA) and THP-1 cells to lipopolysaccharide (LPS), activates NF-κB mediated gene transcription of several pro-inflammatory cytokines, including IL-2, IL-6, IL-8 and TNF-α (Baldwin, Ann. Rev. Immunol. 14: 649–683 (1996); Grilli et al., Int. Rev. Cytol. 143: 1–62 (1993)). […] The inhibition of IL-2 was evaluated in Jurkat cells after PMA/PHA activation (Mahon and O'Neill, J. Biol. Chem. 270: 28557–28564 (1995); Lindgren et al., Molec. Immunol. 38V 267–277 (2001)). The inhibition of TNF-α was evaluated in THP-1 cells after LPS activation (Aikawa et al., Inflamm. Res. 51: 188–194 (2002)). […] After 24 hours, the cell free supernatant fractions were collected and subjected to EIA for the quantification of total IL-2 production.
The assay measured the ability of the compounds to inhibit TNF-α production in LPS stimulated THP-1 cells (Aikawa et al., Inflamm. Res. 51V 188–194 (2002)).
THP-1 cells are grown in RPMI-1640 Media (Gibco-BRL, Rockville, Md.) supplemented with 5% fetal bovine serum, penicillin (614 ηg/mL), streptomycin (10 μg/mL) and HEPES buffer, pH 7.2 at 37° C., 5% CO2. To each well of a flat bottomed 96 well culture plate 0.2 mL 1×10^6 THP-1 cells/mL were added. Each sample was then treated in duplicate with the compounds in DMSO at either 10 μM, 1 μM, 0.1 μM or 10 ηM and allowed to incubate for thirty minutes at 37° C., 5% CO2. Cell free supernatant fractions were collected from stimulated cultures incubated for 3 hr at 37° C., 5% CO2. Cultures were stimulated with LPS (Sigma-Aldrich, St. Louis, Mo.) at 1 μg/mL. The concentration of TNF-α in each sample was then measured using a competitive enzyme immunoassay (Neogen Corporation, Lansing, Mich.) according to the manufacturer's protocol. To make a standard curve, known TNF-α concentrations were plotted and fitted to a 4 parameter logistic curve. Unknown concentrations were then extrapolated from the standard curve.

NF-κB-DNA binding = test: EMSA for NF-κB-DNA binding in nuclear extracts of PMA/PHA-activated Jurkat cells; type: cell-based, human; settings: for Count per mm^2 NF-κB bands / Inhibition of DNA-binding (relative to activated control): EMSA; for Count per mm^2 NF-κB bands: activated control 105.55; for Inhibition of DNA-binding (relative to activated control): PMA-activated Jurkat cells
Description: Human Jurkat leukemia T-cells (clone E6-1; ATCC No. […] The Jurkat cells (1×10^6 cells/mL) are subsequently treated with various concentrations of the compounds in DMSO for 30 min. at 37° C. and 5% CO2 followed by PMA (50 ng/mL) and PHA ([…]) stimulation for an additional 30 minutes. The cells were harvested by centrifugation, washed in ice cold PBS and the nuclear extracts were prepared as previously described (Dignam et al., Nucl. Acids Res. 11: 1475-1489 (1983)). The protein concentration of the extracts was determined according to the Method of Bradford (1976) with BioRad reagents. Nuclear extracts were incubated for 20 minutes at room temperature with a double stranded Cy3 labeled NF-κB consensus oligonucleotide, [NT] ID NO:1). The binding mixture (25 μL) contained 10 mM HEPES-NaOH pH 7.9, 4 mM Tris-HCL, pH 7.9, 6.0 mM KCl, 1 mM EDTA, 1 mM DTT, 10% glycerol, 0.3 mg/mL bovine serum albumin, and 1 μg of poly (dI:dC). The binding mixtures (10 μg of nuclear extract protein) were incubated for 20 minutes at room temperature with 0.16 pmol of Cy3 labeled oligonucleotide. The mixture was loaded on a 4% polyacrylamide gel prepared in 1× TRIS borate/EDTA buffer and was electrophoresed at 200 V for 20 minutes. After electrophoresis the gel was analyzed using a phosphorimager (BIORAD FX PLUS, Biorad Laboratories, Inc., Hercules, Calif.) for detection of NF-κB-DNA binding.

IL-2 production = test: Inhibition of IL-2 production measured by competitive EIA in PMA/PHA-activated Jurkat T cells; type: cell-based, human; settings: for IC50: PMA/PHA-activated Jurkat T cells, EIA, means of two experiments, standard deviation in parentheses
Description: as §1
To each well of a flat bottomed 96 well culture plate 0.2 mL 1×10^6 Jurkat E6-1 cells/mL were added. Each sample was then treated in duplicate with the compounds in DMSO at either 10 μM, 1 μM, 0.1 μM or 10 ηM and allowed to incubate for thirty minutes at 37° C., 5% CO2. Cell free supernatant fractions were collected from stimulated cultures incubated for 24 hr at 37° C., 5% CO2. Cultures were stimulated with phytohemagglutinin (PHA, Sigma-Aldrich, St. Louis, Mo.) at 1 μg/mL; and phorbol myristate acetate (PMA, Sigma-Aldrich, St. Louis, Mo.) at 50 ng/mL. The concentration of IL-2 in each sample was then measured using a competitive enzyme immunoassay (Neogen Corporation, Lansing, Mich.) according to the manufacturer's protocol. Known IL-2 concentrations were plotted and fit a 4 parameter logistic curve. Unknown concentrations were then extrapolated from the standard curve.

CDK1 = test: Inhibition of CDK1 (method of Meijer et al.); type: biochemical
Text: The inhibitory activity of compound 3 was less pronounced.

GSK-3β = GSK-3β (Homo sapiens, UniProt P49841); test: Inhibition of GSK-3β (method of Meijer et al.); type: biochemical
Sequence of GSK-3β (P49841 whole entry, species assumed): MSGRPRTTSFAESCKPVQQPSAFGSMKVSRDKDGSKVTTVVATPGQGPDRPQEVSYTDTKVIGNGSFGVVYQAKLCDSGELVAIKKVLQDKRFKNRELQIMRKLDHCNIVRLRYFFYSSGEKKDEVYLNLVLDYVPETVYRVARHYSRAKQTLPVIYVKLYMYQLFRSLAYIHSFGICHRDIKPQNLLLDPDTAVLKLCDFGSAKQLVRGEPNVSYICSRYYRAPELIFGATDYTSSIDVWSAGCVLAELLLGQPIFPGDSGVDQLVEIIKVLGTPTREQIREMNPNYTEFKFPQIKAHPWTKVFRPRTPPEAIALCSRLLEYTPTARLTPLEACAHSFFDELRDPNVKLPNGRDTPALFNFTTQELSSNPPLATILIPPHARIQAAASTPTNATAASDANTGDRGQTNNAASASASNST

Structure (SMILES) | Inhibition of checkpoint kinase CHK1 (in words) (CHK1) | GI50 (CEM leukemia cells) | IC50 (TNF-α production) | IC50 (TNF-α production; Homo sapiens, THP-1, 3 h) | Count per mm^2 NF-κB bands (NF-κB-DNA binding; 1.0 μM) | Count per mm^2 NF-κB bands (NF-κB-DNA binding; 5.0 μM) | IC50 (IL-2 production; Homo sapiens, Jurkat, 24 h) | IC50 (IL-2 production; 24 hr) | IC50 (TNF-α production; Homo sapiens) | Inhibition of DNA-binding (relative to activated control) (NF-κB-DNA binding; 1.0 μM) | Inhibition of DNA-binding (relative to activated control) (NF-κB-DNA binding; 5.0 μM) | IC50 (IL-2 production; Homo sapiens, 24 hr) | IC50 (CDK1) | IC50 (GSK-3β) | melting point | Inhibition of TNF-α production (in words) (TNF-α production; tested up to 10 μM) | Inhibition of NF-κB-DNA binding (in words) (NF-κB-DNA binding; measured up to concentrations of 5 μM) | Inhibition of IL-2 production (in words) (IL-2 production; Jurkat cells, measured up to 10 μM)
NC1=N/C(=C2/CCNC(=O)c3[nH]ccc32)C(=O)N1 [debromohymenialdisine] | low micromolar concentrations |  |  |  |  |  |  |  |  |  |  |  |  |  |  |  |  | 
NC1=NC(=O)/C(=C2\CCNC(=O)c3[nH]c(Br)cc32)N1 [Hymenialdisine 1, hymenialdisine, reference compound] |  | 1.61 µM | 1.36 µM | 1.4 µM | 102.14 Count per mm^2 | 57.06 Count per mm^2 | 2.4 µM | 2.41 µM |  |  |  |  |  |  |  |  |  | 
S=C(S)N1CCCC1 [PDTC, pyrrolidinedithiocarbamate, reference compound] |  |  |  |  | 73.48 Count per mm^2 | 51.68 Count per mm^2 |  |  | 6.11 µM | 30% | 51% | 5.12 µM |  |  |  |  |  | 
Cn1c2c(c3ccccc31)C(=C1N=C(N)NC1=O)CCNC2=O [Compound 3, 5-(2-amino-5-oxo-1,5-dihydro-imidazol-4-ylidene)-10-methyl-3,4,5,10-tetrahydro-2H-azepino[3,4-b]indol-1-one] |  | 14.3 µM |  |  | 118.82 Count per mm^2 | 121.76 Count per mm^2 |  |  | > 10 µM | 0% | 0% | > 10 µM | > 10 µM | > 10 µM | > 260 °C | did not have any significant activity | did not appear to substantially inhibit DNA binding | no significant inhibition of IL-2 production
